According to patent EP0400686A1, “2-Amino-9-[1,3bis-(isopropoxy)-propyl-2-oxymethyl]-purine, its utilization and medicaments containing it” (HOECHST AKTIENGESELLSCHAFT, priority 1985, dated 1987):

System: Herpes simplex Typ 1
Assay: In vivo test: NMRI mice infected intraperitoneally with Herpes simplex type 1, treated i.p. twice daily for 5 days, survival rate
Settings: Herpes simplex Typ 1 an der NMRI-Maus
Source text: NMRI-Mäuse, spezifisch pathogenfrei, im Gewicht von etwa 15 g wurden intraperitoneal mit Herpes simplex Typ 1 infiziert und anschließend mit den beschriebenen Verbindungen intraperitoneal therapiert. Als Vergleich diente stets Acyclovir (ACV). Die Behandlung erfolgte zweimal täglich über 5 Tage, beginnend nach der Infektion. Der Behandlungserfolg wurde anhand des Krankheitsverlaufes und der Überlebensrate gegenüber den unbehandelten Infektionskontrollen bestimmt. Letztere erhielten anstelle der zu prüfenden Verbindungen eine wasserlösliche Methylhydroxyäthylcellulose (Viskosität […] in 2 %iger Lösung) (^(R)Tylose MH 300 P) appliziert.
Die chemaotherapeutische Wirkung erfindungsgemäßer Verbindungen ist aus Tabelle 1 ersichtlich.

[1] = Dosierung 10 x 0,2 mg/Maus i.p.
[2] = Dosierung 10 x 0,6 mg/Maus i.p.

Row | SMILES | Mittlere Überlebensrate x/10 [1] | Mittlere Überlebensrate x/10 [2]
1 | CC(=O)OCC(CN=[N+]=[N-])OCn1cnc2c(=O)[nH]c(N)nc21 (racemic) [Verbindung 9, 9-(1-Azidomethyl-2-acetoxyäthoxymethyl)-guanin] | 9/10 | 9/10
2 | CC(=O)OCC(COC(C)C)OCn1cnc2c(=O)[nH]c(N)nc21 (racemic) [Verbindung 20, 9-(1-Isopropoxymethyl-2-acetoxyäthoxymethyl)-guanin] | 10/10 | 10/10
